Data: patent US11999727B2 (Tango Therapeutics, Inc., priority 2020, dated 2024)
Where two headings read alike, the source gives them in different places.

Legend:
[1] = system: HAP1 MTAP-deleted cell line; assay: Viability assay, MTAP-deleted cell line; type: cell-based
Description: Table 1 additionally indicates IC50 values in a viability assay for the MTAP-deleted cell line (column 10), indicating the effect of treatment with compound on cell survival.

[2] = system: HAP1 MTAP-intact cell line; assay: SDMA in-cell western assay, HAP1 MTAP-intact; type: cell-based; conditions: Homo sapiens
Method in brief: (§1)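 Isogenic HAP1 pair: the MTAP-intact line expresses endogenous MTAP, and the deleted line is MTAP-null. Symmetric dimethylarginine was detected by in-cell western and IC50 values derived for each line.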

PRMT5 [3] = target: T1, PRMT5 (Homo sapiens, UniProt O14744); assay: PRMT5 biochemical IC50 assay with MTA as cofactor; conditions: PRMT5, MTA as cofactor; read-out: MTA IC50
T1 construct: purchased Viva (custom protein)
T1 sequence (O14744 whole entry): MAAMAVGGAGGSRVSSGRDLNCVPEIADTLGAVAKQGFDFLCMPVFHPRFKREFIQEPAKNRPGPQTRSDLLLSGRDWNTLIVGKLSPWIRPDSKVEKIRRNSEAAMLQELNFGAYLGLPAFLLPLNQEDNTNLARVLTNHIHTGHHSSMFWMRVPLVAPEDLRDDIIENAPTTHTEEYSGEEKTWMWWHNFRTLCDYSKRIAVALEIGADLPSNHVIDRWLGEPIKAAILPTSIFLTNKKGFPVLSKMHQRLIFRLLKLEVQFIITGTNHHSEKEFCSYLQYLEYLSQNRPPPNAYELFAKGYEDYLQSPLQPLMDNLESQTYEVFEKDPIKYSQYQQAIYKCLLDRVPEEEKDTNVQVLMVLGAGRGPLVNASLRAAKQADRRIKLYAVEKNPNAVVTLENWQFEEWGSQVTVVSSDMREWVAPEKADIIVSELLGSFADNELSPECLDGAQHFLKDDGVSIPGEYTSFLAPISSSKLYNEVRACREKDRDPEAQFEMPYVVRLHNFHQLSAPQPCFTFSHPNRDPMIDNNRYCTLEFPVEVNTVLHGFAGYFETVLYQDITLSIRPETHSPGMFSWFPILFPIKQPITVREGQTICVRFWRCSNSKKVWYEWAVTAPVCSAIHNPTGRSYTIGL
T1 sequence (Q9BQA1 whole entry partner): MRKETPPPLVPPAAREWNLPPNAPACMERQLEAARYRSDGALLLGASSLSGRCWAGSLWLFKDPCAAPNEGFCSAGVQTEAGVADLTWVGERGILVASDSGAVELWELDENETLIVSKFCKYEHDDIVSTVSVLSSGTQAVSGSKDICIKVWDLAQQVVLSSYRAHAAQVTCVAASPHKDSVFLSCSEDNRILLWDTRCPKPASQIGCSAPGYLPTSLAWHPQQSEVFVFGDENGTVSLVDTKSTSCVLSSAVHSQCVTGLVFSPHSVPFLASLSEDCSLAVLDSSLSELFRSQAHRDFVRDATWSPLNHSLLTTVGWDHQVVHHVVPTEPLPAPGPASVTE

[4] = system: HAP1 MTAP-deleted cell line; assay: SDMA in-cell western assay, HAP1 MTAP-deleted; type: cell-based; conditions: for IC50: Homo sapiens; for MTAP intact/deleted ratio: IC50 ratio HAP1 MTAP-intact / HAP1 MTAP-deleted, SDMA in-cell western
Method in brief: as §1

PRMT5 [5] = target: T1, PRMT5; assay: PRMT5 biochemical IC50 assay with SAM as cofactor; conditions: PRMT5, SAM as cofactor; read-out: SAM IC50
PRMT5 [6] = target: T1, PRMT5; assay: PRMT5 biochemical IC50 assay with no cofactor; conditions: PRMT5, no cofactor; read-out: No Cofactor/rel IC50
Description: Table 1 indicates IC50 values (μM) against PRMT5 for exemplary compounds in the presence of SAM as cofactor, with no cofactor, and with MTA as cofactor, respectively (columns 4-6). […] Ki values can be calculated from the IC50 values as described in the Examples section. As detailed in the Examples section, for the assay performed in the presence of SAM, IC50=Ki×1.5 (Ki=IC50/1.5).

[7] = Homo sapiens, HAP1, viability assay, MTAP-deleted cell line, read-out: HAP1 MTAP deleted viability
[8] = HAP1, SDMA in-cell western, HAP1 MTAP-intact, read-out: MTAP HAP1 intact IC50
[9] = HAP1, SDMA in-cell western, HAP1 MTAP-deleted, read-out: HAP1 MTAP deleted IC50
[10] = Homo sapiens, HAP1, read-out: HAP1 MTAP deleted viability
[11] = HAP1, read-out: MTAP HAP1 intact IC50
[12] = HAP1, read-out: HAP1 MTAP deleted IC50

Row | Structure (SMILES) | IC50 [2, 8] | IC50 (PRMT5 [3]) | IC50 [4, 9] | IC50 (PRMT5 [5]) | IC50 (PRMT5 [6]) | IC50 [1, 7] | MTAP intact/deleted ratio [4] | IC50 [1, 10] | IC50 [2, 11] | IC50 [4, 12] | IC50 ([1]; viability assay, MTAP-deleted cell line, read-out: HAP1 MTAP deleted viability)
1 | Cc1cc(NC(=O)C(=O)N2C[C@H](C)CC[C@H]2[C@H]2CC[C@H](C(C)(C)C)CC2)cnc1N (single isomer, unassigned) [Compound 260] | > 1 µM | < 0.05 µM | 0.1 to 1 µM | 0.05 to 0.5 µM | 0.05 to 0.5 µM | 1 to 10 µM | C (an IC50 ratio of less than 3 fold) |  |  |  | 
2 | Cc1cc(NC(=O)C(=O)N2C[C@@H](C)CC[C@@H]2c2cccc(Cl)c2)cnc1N (single isomer, unassigned) [Compound 284] | 0.1 to 1 µM | < 0.05 µM | < 0.1 µM | 0.05 to 0.5 µM | < 0.05 µM | < 1 µM | A (an IC50 ratio greater than or equal to 10 fold) |  |  |  | 
3 | COc1ncc(NC(=O)C(=O)N2C[C@@H](C)CC[C@@H]2c2ccc(O)cc2)cc1C(N)=O (single isomer, unassigned) [Compound 288] |  | < 0.05 µM |  | 0.05 to 0.5 µM | < 0.05 µM |  | A (an IC50 ratio greater than or equal to 10 fold) | < 1 µM | 0.1 to 1 µM | < 0.1 µM | 
4 | Cc1cc(NC(=O)C(=O)N2C[C@@H](C)CC[C@@H]2[C@H]2CC[C@@H](C(C)(C)C)CC2)cnc1N (single isomer, unassigned) [Compound 290] | > 1 µM | > 0.5 µM | > 1 µM | > 0.5 µM | > 0.5 µM | > 10 µM | C (an IC50 ratio of less than 3 fold) |  |  |  | 
5 | COc1ncc(NC(=O)C(=O)N2C[C@@H](C)CC[C@@H]2c2ccccc2)cc1C(N)=O (single isomer, unassigned) [Compound 291] |  | > 0.5 µM |  | > 0.5 µM | > 0.5 µM |  | C (an IC50 ratio of less than 3 fold) | > 10 µM | > 1 µM | > 1 µM | 
6 | COc1ncc(NC(=O)C(=O)N2C[C@H](C)CC[C@H]2c2ccc(O)cc2)cc1C(N)=O (single isomer, unassigned) [Compound 292] |  | > 0.5 µM |  | > 0.5 µM | > 0.5 µM |  | C (an IC50 ratio of less than 3 fold) | > 10 µM | > 1 µM | > 1 µM | 
7 | COc1ncc(NC(=O)C(=O)N2C[C@@H](C)CC[C@@H]2c2cccs2)cc1C(N)=O (single isomer, unassigned) [Compound 303] | > 1 µM | < 0.05 µM | < 0.1 µM | 0.05 to 0.5 µM | < 0.05 µM | < 1 µM | A (an IC50 ratio greater than or equal to 10 fold) |  |  |  | 
8 | COc1ncc(NC(=O)C(=O)N2C[C@H](C)CC[C@@H]2c2ccccc2)cc1C(N)=O (single isomer, unassigned) [Compound 308] |  | < 0.05 µM |  | 0.05 to 0.5 µM | > 0.5 µM |  | A (an IC50 ratio greater than or equal to 10 fold) | > 10 µM | > 1 µM | 0.1 to 1 µM | 
9 | Cc1cc(NC(=O)C(=O)N2C[C@@H](C)[C@H](C)C[C@H]2c2ccccc2)cnc1N (single isomer, unassigned) [Compound 313] | > 1 µM | < 0.05 µM | < 0.1 µM | 0.05 to 0.5 µM | 0.05 to 0.5 µM | 1 to 10 µM | A (an IC50 ratio greater than or equal to 10 fold) |  |  |  | 
10 | Cc1cc([C@@H]2CC[C@@H](C)CN2C(=O)C(=O)Nc2cncc(C(N)=O)c2)ccc1O (single isomer, unassigned) [Compound 323] | 0.1 to 1 µM | < 0.05 µM | < 0.1 µM | 0.05 to 0.5 µM | < 0.05 µM | < 1 µM | A (an IC50 ratio greater than or equal to 10 fold) |  |  |  | 
11 | CC(=O)N1CCC(c2cccc([C@H]3CC[C@H](C)CN3C(=O)C(=O)Nc3cnc(N)c(C)c3)c2)CC1 (single isomer, unassigned) [Compound 324] | 0.1 to 1 µM | < 0.05 µM | < 0.1 µM | 0.05 to 0.5 µM | < 0.05 µM | < 1 µM | A (an IC50 ratio greater than or equal to 10 fold) |  |  |  | 
12 | C[C@@H]1CC[C@@H](c2ccc3c(c2)C[C@@H](C)O3)N(C(=O)C(=O)Nc2cncc(C(N)=O)c2)C1 (single isomer, unassigned) [Compound 329] | > 1 µM | < 0.05 µM | < 0.1 µM | 0.05 to 0.5 µM | 0.05 to 0.5 µM | 1 to 10 µM | A (an IC50 ratio greater than or equal to 10 fold) |  |  |  | 

The next lines start with results.

Row | IC50 [2, 8] | IC50 (PRMT5 [3]) | IC50 [4, 9] | IC50 (PRMT5 [5]) | IC50 (PRMT5 [6]) | Structure (SMILES) | IC50 [1, 7] | MTAP intact/deleted ratio [4] | IC50 [1, 10] | IC50 [2, 11] | IC50 [4, 12] | IC50 ([1]; viability assay, MTAP-deleted cell line, read-out: HAP1 MTAP deleted viability)
13 | > 1 µM | < 0.05 µM | < 0.1 µM | < 0.05 µM | 0.05 to 0.5 µM | C[C@H]1C[C@H](C)[C@H](c2ccccc2)N(C(=O)C(=O)Nc2cncc(C(N)=O)c2)C1 (single isomer, unassigned) [Compound 267, 5-(2-(3,5-dimethyl-2-phenylpiperidin-1-yl)-2-oxoacetamido)nicotinamide] | 1 to 10 µM | A (an IC50 ratio greater than or equal to 10 fold) |  |  |  | 
14 | > 1 µM | < 0.05 µM | 0.1 to 1 µM | 0.05 to 0.5 µM | 0.05 to 0.5 µM | C[C@H]1CCC[C@@H](c2ccccc2)N1C(=O)C(=O)Nc1cncc(C(N)=O)c1 (single isomer, unassigned) [Compound 274] | 1 to 10 µM | A (an IC50 ratio greater than or equal to 10 fold) |  |  |  | 
15 | > 1 µM | 0.05 to 0.5 µM | 0.1 to 1 µM | > 0.5 µM | > 0.5 µM | CC(=O)N[C@H]1CC[C@@H]([C@@H]2CC[C@@H](C)CN2C(=O)C(=O)Nc2cnc(N)c(C)c2)CC1 (single isomer, unassigned) [Compound 281] | > 10 µM | A (an IC50 ratio greater than or equal to 10 fold) |  |  |  | 
16 | > 1 µM | > 0.5 µM | > 1 µM | > 0.5 µM | > 0.5 µM | Cc1cc(NC(=O)C(=O)N2C[C@H](C)CC[C@H]2c2cccc(Cl)c2)cnc1N (single isomer, unassigned) [Compound 283] | > 10 µM | B (an IC50 ratio greater than or equal to 3 fold but lower than 10 fold) |  |  |  | 
17 | > 1 µM | < 0.05 µM | < 0.1 µM | < 0.05 µM | 0.05 to 0.5 µM | Cc1cc([C@H]2CC[C@H](C)CN2C(=O)C(=O)Nc2cncc(C(N)=O)c2)ccc1F (single isomer, unassigned) [Compound 293] | 1 to 10 µM | A (an IC50 ratio greater than or equal to 10 fold) |  |  |  | 
18 | > 1 µM | < 0.05 µM | < 0.1 µM | 0.05 to 0.5 µM | 0.05 to 0.5 µM | COc1ncc(NC(=O)C(=O)N2CCCCC2C2CCCC2)cc1C(N)=O (single isomer, unassigned) [Compound 294, 5-(2-(2-cyclopentylpiperidin-1-yl)-2-oxoacetamido)-2-methoxynicotinamide] |  | A (an IC50 ratio greater than or equal to 10 fold) |  |  |  | 1 to 10 µM
19 | 0.1 to 1 µM | < 0.05 µM | < 0.1 µM | 0.05 to 0.5 µM | 0.05 to 0.5 µM | Cc1cc(NC(=O)C(=O)N2C[C@H](C)CC[C@H]2c2cccnc2)cnc1N (single isomer, unassigned) [Compound 301] | 1 to 10 µM | B (an IC50 ratio greater than or equal to 3 fold but lower than 10 fold) |  |  |  | 
20 | > 1 µM | < 0.05 µM | < 0.1 µM | 0.05 to 0.5 µM | 0.05 to 0.5 µM | COc1ncc(NC(=O)C(=O)N2C[C@H](C)CC[C@H]2C2CCCC2)cc1C(N)=O (single isomer, unassigned) [Compound 306] | 1 to 10 µM | A (an IC50 ratio greater than or equal to 10 fold) |  |  |  | 
21 | > 1 µM | < 0.05 µM | 0.1 to 1 µM | 0.05 to 0.5 µM | 0.05 to 0.5 µM | C[C@@H]1C[C@H](C)[C@@H](c2ccccc2)N(C(=O)C(=O)Nc2cncc(C(N)=O)c2)C1 (single isomer, unassigned) [Compound 311, 5-(2-(3,5-dimethyl-2-phenylpiperidin-1-yl)-2-oxoacetamido)nicotinamide] | > 10 µM | A (an IC50 ratio greater than or equal to 10 fold) |  |  |  | 
22 | > 1 µM | 0.05 to 0.5 µM | > 1 µM | 0.05 to 0.5 µM | > 0.5 µM | C[C@H]1CC[C@H](C2CCC(F)(F)CC2)N(C(=O)C(=O)Nc2cncc(C(N)=O)c2)C1 (single isomer, unassigned) [Compound 320] | > 10 µM | B (an IC50 ratio greater than or equal to 3 fold but lower than 10 fold) |  |  |  | 
